Reference: article PMC9805938 (Journal of Pharmaceutical Analysis, 2020)

Target: T1, transforming growth factor-β receptor type-I (TGF-β RI) (Homo sapiens, UniProt P36897)
T1 sequence (P36897 34-503): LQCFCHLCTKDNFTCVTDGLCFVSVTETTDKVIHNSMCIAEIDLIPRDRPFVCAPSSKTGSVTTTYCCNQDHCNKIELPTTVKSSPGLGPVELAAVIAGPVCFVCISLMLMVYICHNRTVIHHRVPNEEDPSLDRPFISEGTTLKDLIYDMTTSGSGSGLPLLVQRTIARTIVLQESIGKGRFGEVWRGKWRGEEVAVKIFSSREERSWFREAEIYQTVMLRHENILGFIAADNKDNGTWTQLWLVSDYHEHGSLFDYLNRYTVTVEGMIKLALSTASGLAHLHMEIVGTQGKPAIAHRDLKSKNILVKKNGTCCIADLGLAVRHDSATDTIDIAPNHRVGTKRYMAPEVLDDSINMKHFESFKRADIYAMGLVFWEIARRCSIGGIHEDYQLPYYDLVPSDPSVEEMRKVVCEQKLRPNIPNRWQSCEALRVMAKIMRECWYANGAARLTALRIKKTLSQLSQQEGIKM
Assay type: biochemical

Oc1ccc(/C=C/c2cc(O)cc(O)c2)cc1 [compound 12, Resveratrol]
IC50: 2210 ± 266 nM
